According to patent publication US20140357688A1, “METHOD FOR INHIBITING EZH2 EXPRESSION IN BREAST CANCER CELLS” (Yung Shin Pharm. Ind. Co., Ltd., priority 2013, published 2014):
Peptide text beside a SMILES is read from it. * marks the point of attachment. Cbz = O=C(OCc1ccccc1)*

Assays:
Format in all cases: cell-based, human
[1] = tested on: EZH2; assay: EZH2 ubiquitination assay; details: inhibitor pretreatment, then 3 μM YC-1
Method: (A) Cells were pretreated with cyclohexamide (30 μM) for 1 h and followed by induction with vehicle (DMSO) or YC-1 (3 μM) for indicated time. Cells were harvested for detection of protein expression. (B)(C) Cells were incubated with 3 μM YC-1 for 6 h in the presence of vehicle, 3 μM MG-132 or 30 μM NH4Cl. Cells were harvested for detection of protein expression (B) or cell viability assay (C). The levels of protein expression were quantitated and shown under blots. (D) After treatment of 3 μM YC-1 for indicated time, cells were harvested and lysed for immunoprecipitation and western blot analysis described in Materials and Methods.
Cells were lysed with MLB buffer (25 mM HEPES, pH 7.5, 150 mM NaCl, 1% Igepal CA-630, 10 mM MgCl2, 1 mM EDTA, 2% glycerol, 1 mM Na3VO4, 1 mM NaF, 1 mM PMSF, 10 μg/ml of leupeptin, aprotinin, and pepstatin A). After sonication, cell lysates were centrifugated at 12,000×g for 10 min at 4° C. Supernatants were incubated with anti-EZH2 antibody (BD Biosciences) and protein A Sepharose beads (GE Health Care) overnight at 4° C. After washing with MLB buffer, precipitated proteins were boiled in 1× Laemmli sample buffer and then separated with SDS-PAGE. The ubiquitination levels of EZH2 were recognized by using anti-Ubiquitn monoclonal antibody.

[2] = tested on: EZH2; assay: Western blot of EZH2 protein expression in MDA-MB-468 cells; details: for effect of inhibitor on YC-1-induced EZH2 inhibition: inhibitor pretreatment, then 3 μM YC-1 for 6 h
Method: Cells were harvested and performed with western blotting analysis. […] The levels of protein expression were quantitated and shown under blots. (C) Cells were transfected with EZH2 shRNA for 0, 1, 2, 3, and 4 days and collected for determination of cell viability (left) and protein expression (right). (D)(E) After 4 days of EZH2 knockdown, cells were incubated with 3 μM YC-1 for 4 h and detected cell viability (D) and protein contents (E). (F) Tumor specimens were isolated and protein was extracted for western blot analysis.
Cells were lysed in PBS containing proteinase inhibitor and phosphatase inhibitors and sonication. Protein concentration was measured using the Bio-Rad protein assay kit (Bio-Rad Laboratories, Hercules, Calif., USA). Lysate protein was separated by electrophoresis of SDS-PAGE and transferred to Immobilon P membrane (EMD Millipore). The membranes were incubated with appropriate primary antibodies and horseradish peroxidase-conjugated secondary antibodies (EMD Millipore). The signaling was visualized using Chemiluminescence substrate kit (EMD Millipore) and collected by the Luminesence image analyzer, LAS4000 (Fuji Photo Film Co., Tokyo, Japan). The band intensities were analyzed and quantified by the Multi Gauge software (Fuji Photo Film).

[3] = tested on: MDA-MB-468; assay: MTT cell viability assay; details: for effect of inhibitor on YC-1-induced inhibition of cell viability: inhibitor pretreatment, then 3 μM YC-1 for 6 h
Method: (A) Cells were treated with indicated concentration of YC-1 for 6, 24, and 48 h. Cell viability was determined by MTT method. (B) MDA-MB-468 cells were treated with 3 μM YC-1 for 0, 6, and 12 h, and then stained with fluorescence diacetate (FDA) and propidium iodide (PI). Cell morphology was assessed by fluorescence microscopy with magnification ×20 (upper 3 rows) or ×40 (lowest row). (C) MDA-MB-468 cells were treated with 3 μM YC-1 for 24 h, cells were lysed and subjected to western blot analysis described in Materials and Methods. β-actin is a loading control. Blots were representative of results from three independent experiments. (D) Cells were treated with vehicle (DMSO, as control) or 3 μM YC-1 for 6 h. The cell cycles were analyzed by flow cytometry. (E) Cells were treated with indicated concentration of YC-1 and then performed with clonogenic assay.
Human breast cancer cells, MDA-MB-468, MDA-MB-157, MDA-MB-231, MDA-MB-453, and Hs578T, and immortalized mammary epithelial cell lines, 184A1 and MCF-10A, were obtained from American Type Culture Collection (Manassas, Va., USA). MDA-MB-468, MDA-MB-157, MDA-MB-231, and MDA-MB-453 were cultured in DMEM/F12 medium supplemented with 10% FBS, 100 U/ml penicillin, and 100 μg/ml streptomycin. Hs578T was cultured in RPMI 1640 medium containing 10% FBS, 2 mM L-glutamine, 100 U/ml penicillin, and 100 μg/ml streptomycin. 184A1 and MCF-10A were cultured in DMEM/F12 medium supplemented with 5% horse serum, 0.5 μg/ml hydrocortisone, 10 μg/ml insulin, 20 ng/ml epidermal growth factor, 0.1 μg/ml cholera enterotoxin, 2 mM L-glutamine, 100 U/ml penicillin, and 100 μg/ml streptomycin. All cells were maintained in a humidified incubator containing 5% CO2. For hypoxia treatment, cells were incubated in a chamber flushed with 1% 02, 5% CO2, and 94% N2 at 37° C.
Cell viability was measured by 3-(4,5-Dimethyl-2-thiazolyl)2,5-diphenyl-2H-tetrazolium bromide (MTT) assay.

[4] = tested on: c-Cbl; assay: Western blot of c-Cbl phosphorylation and expression; details: pretreatment 1 h, then 3 μM YC-1 for 6 h
Method: (A) c-Cbl knockdown MDA-MB-468 cells were treated with 3 μM YC-1 for 4 h. Cell were harvested for detection of protein expression. (B) Cells were treated with 3 μM YC-1 for indicated time. Cells were collected and c-Cbl phosphorylation was detected. […] (D) Cells were pretreated with MG-132 and followed by 3 μM YC-1 induction for indicated time. Cells were harvested and lysed for immunoprecipitation assay. The association between c-Cbl and EZH2 were determined by western blotting analysis and probed with anti-EZH2 or anti-c-Cbl antibody. Membranes were stripped and reprobed with anti-c-Cbl or anti-EZH2 antibody to check the input. […] Then cells were collected and lysate protein was subjected for the detection of the c-Cbl-EZH2 complexes. Cells were lysed in PBS containing proteinase inhibitor and phosphatase inhibitors and sonication. Protein concentration was measured using the Bio-Rad protein assay kit (Bio-Rad Laboratories, Hercules, Calif., USA). Lysate protein was separated by electrophoresis of SDS-PAGE and transferred to Immobilon P membrane (EMD Millipore). The membranes were incubated with appropriate primary antibodies and horseradish peroxidase-conjugated secondary antibodies (EMD Millipore). The signaling was visualized using Chemiluminescence substrate kit (EMD Millipore) and collected by the Luminesence image analyzer, LAS4000 (Fuji Photo Film Co., Tokyo, Japan). The band intensities were analyzed and quantified by the Multi Gauge software (Fuji Photo Film).

Compound | effect of inhibitor on YC-1-induced EZH2 ubiquitination [1] | effect of inhibitor on YC-1-induced EZH2 inhibition [2] | effect of inhibitor on YC-1-induced inhibition of cell viability [3] | activation of apoptosis / cell viability ([3]; DZNep, 24 h, ten folds of concentration higher than YC-1) | EZH2 inhibition ([2]; DZNep 3, 10, 30 μM, 24 h, ten folds of concentration higher than YC-1) | effect of inhibitor on YC-1-induced inhibition of c-Cbl [4]
COc1cc2ncnc(Nc3cccc(Cl)c3)c2cc1OC [AG1478] | not | not affected |  |  |  | 
CNC(=O)c1cc(Oc2ccc(NC(=O)Nc3ccc(Cl)c(C(F)(F)F)c3)cc2)ccn1 [Bay-43-9006] | significantly suppressed | attenuated | attenuated |  |  | 
Nc1nccc2c1ncn2[C@@H]1C=C(CO)[C@@H](O)[C@H]1O [DZNep, 3-deazaneplanocin A] |  |  |  | failed to inhibit EZH2 and activate apoptosis | failed to inhibit EZH2 | 
COC(=O)[C@@]1(OC)C[C@H]2O[C@]1(C)n1c3ccccc3c3c4c(c5c6ccccc6n2c5c31)C(=O)N(C)C4 [KT5823] |  | failed to have effects | failed to have effects |  |  | 
CC(C)C[C@@H](C=O)NC(=O)[C@H](CC(C)C)NC(=O)[C@H](CC(C)C)NC(=O)OCc1ccccc1 [MG-132] (Cbz-Leu-Leu-Leu-aldehyde) |  | significantly prevented EZH2 degradation | reversed the YC-1-induced inhibition of cell viability |  |  | could be reversed
Cl.N [NH4Cl, reference compound] |  | not |  |  |  | not
O=c1onc2n1-c1cc(Br)ccc1OC2 [NS2028] |  | failed to have effects | failed to have effects |  |  | 
O=c1onc2cnc3ccccc3n12 [ODQ] |  | failed to have effects | failed to have effects |  |  | 
COc1cc2ncnc(Nc3ccc(Oc4ccccc4)cc3)c2cc1OC [SrcI] | significantly suppressed | attenuated | attenuated |  |  | 
CC(C)=CCC/C(C)=C/CC/C(C)=C/CSc1ccccc1C(=O)O [farnyesyl thiosalicylic acid] |  | had no effect |  |  |  | 
O=c1c(-c2ccc(O)cc2)coc2cc(O)cc(O)c12 [genistein] | significantly suppressed | attenuated | attenuated |  |  | 
CCCC[C@@H](C)/C=C(C)/C=C(\C)C(=O)NC1=C[C@@](O)(/C=C/C=C/C=C/C(=O)NC2=C(O)CCC2=O)[C@@H]2O[C@@H]2C1=O [manumycin A] |  | failed to influent |  |  |  | 
CC[C@H](CO)Nc1nc(NCc2ccccc2)c2ncn(C(C)C)c2n1 [roscovitine] |  | failed to modulate | failed to modulate |  |  | 
